Measured values taken from US10179761B2, “Compounds, pharmaceutical composition and their use in treating neurodegenerative diseases” (UNIVERSITE DE LILLE 2 DROIT ET SANTE, priority 2014, dated 2019).
“Also recorded” adds a separate entry of the source.

Legend:
[1] = molecular target: σ1 receptors (Homo sapiens (Human), UniProt Q99720); test: σ1 binding assay, Jurkat cell membranes, [3H](+)-pentazocine; settings: hydrochloride salts; mean of 2 or 3 independent experiments; Ki from IC50 (Cheng-Prusoff); read-out: Sigma 1 Ki
Chain of σ1 receptors (Q99720 whole entry): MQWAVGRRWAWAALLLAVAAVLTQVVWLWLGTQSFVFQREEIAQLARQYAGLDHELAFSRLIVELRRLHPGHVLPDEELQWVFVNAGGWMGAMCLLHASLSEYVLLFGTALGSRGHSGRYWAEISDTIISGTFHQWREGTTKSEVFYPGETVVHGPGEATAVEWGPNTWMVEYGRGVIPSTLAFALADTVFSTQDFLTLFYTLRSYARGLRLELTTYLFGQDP

[2] = tested on: SJL/J mice; test: EAE model, preventive treatment; format: in vivo; settings: single i.p. injection on day 0, 0.5 or 1 mg/kg; FIG. 3
Text: (§1) Animals. SJL/J mice were purchased from Janvier (Le Genest-St-Isle, France) and bred under conventional barrier protection at the Pasteur Institute (Lille, France). All experiment protocols and procedures were in compliance with the European Communities Council Directives of 24 Nov. 1986 (86/609/EEC) and were approved by the local ethical committee (CEEA 102009R). Efforts were made to minimize the number of animals used and their suffering. Animals that reached severe hind limb paresis (clinical grade 3) were isolated, and hydration and food access were facilitated.
(§2) EAE induction and treatment. The method of EAE induction was similar to previously published methods (Lee-Chang et al., Immunol Lett. 2011 Mar. 30; 135(1-2):108-17). […]
(§3) Body weight and clinical signs of EAE were monitored daily. The severity of clinical symptoms was scored based on a standard neurological scoring system for EAE, as follows: grade 0, no disease; grade 1, moderate tail hypotonia and/or slight clumsy gait; grade 2, tail atony and/or clumsy gait; grade 3, severe hind limb paresis; grade 4, paraplegia; grade 5, tetraplegia. […]

[3] = tested on: Male Swiss mice; test: Dizocilpine-induced learning deficits: spontaneous alternation in the Y-maze; format: in vivo
Description: The activity of compound 3.1.10 was evaluated on the prevention of the dizocilpine-induced learning deficits measured using two behavioral tests. The present experiment tested if its anti-amnesic activity could be blocked by pretreatment with the reference sigma-1 receptor antagonist NE-100.
• Sixty (60) mice were used. Behavioral testing started one week after the arrival of the animals in the AMYLGEN animal facility. • 5 treatment groups were designed and used as follows:
• Vehicle 1 was physiological saline for dizocilpine, DMSO 2% in water for compound 3.1.10 • Animals were used at day 1 in the Y-maze test and at days 2 and 3 in the passive avoidance test, with training at day 2 and retention at day 3. • Test compounds, compound 3.1.10 and/or NE-100 were administered 10 min before dizocilpine (at 0.15 mg/kg i.p.) or vehicle. • Dizocilpine or vehicle 1 was administered 20 min before the Y-maze test session on day 1. • Dizocilpine or vehicle 1 was administered 20 min before the passive avoidance training session on day 2. Drugs were not injected before the retention session on day 3. • The whole experiment program was performed in a single serie experiment. • Treatments were randomized. 2.1.2. Animals
Male Swiss mice, 6 weeks old and weighing 30-35 g, from JANVIER (Saint Berthevin, France), were housed in groups with access to food and water ad libitum, except during experiments. They were kept in a temperature and humidity controlled animal facility on a 12 h/12 h light:dark cycle (lights on at 7:00 am). […]
Animals were tested for spontaneous alternation performance in the Y-maze, an index of spatial working memory. […] The number of maximum alternations was therefore the total number of arm entries minus two and the percentage of alternation was calculated as: (actual alternations/maximum alternations)×100. […]
All values, except passive avoidance latencies, were expressed as mean±S.E.M. Statistical analyses were performed using two-way ANOVA (F value), with genotype and peptide treatment as independent factors, followed by a Dunn's post-hoc multiple comparison test.

[4] = tested on: SJL/J mice; test: EAE model, curative treatment; format: in vivo; settings: p.o. from onset of EAE (grade 2) for 14 days, 0.5 or 1 mg/kg; followed 70 days; FIG. 4
Text: as §1, §2, §3

CN(CCCNC(=O)c1ccc(Cl)cc1)Cc1ccccc1 [Compound 3.1.10, N-[3-(benzylmethylamino)propyl]-4-chlorobenzamide]
Ki [1]: 3.2 nM
EAE clinical course, preventive treatment [2]: Amelioration of EAE; also recorded: delaying the onset of EAE
dizocilpine-induced learning deficits, Y-maze test ([3]; 0.5 mg/kg i.p., 10 min before dizocilpine 0.15 mg/kg i.p.): significantly attenuated
beneficial effect of compound 3.1.10 with NE-100, Y-maze test ([3]; 3.1.10 0.5 mg/kg + NE-100 3 mg/kg + dizocilpine 0.15 mg/kg i.p.): prevented by treatment with the sigma-1 antagonist NE-100
EAE clinical course, curative treatment [4]: Amelioration of EAE; also recorded: alleviating the symptoms of EAE
